“Also recorded” adds a separate entry of the source. Like-named read-outs stand apart in the source and are kept apart here.
Tests used:
[1] = tested on: BMDCs; test: Cytotoxicity / cell viability of BMDCs; format: cell-based
[2] = tested on: BMDCs; test: Gene expression in BMDCs; format: cell-based
[3] = tested on: BMDCs; test: Cytokine production in BMDCs; format: cell-based; details: for cytokine production (mIL-12, mIL-6, mTNFalpha) induced by Dectin1: with Dectin1 (FIGS. 4A-4C)
[4] = tested on: NF-κB; test: cell-based NF-κB FRET assay; details: for NF-κB FRET Compound + LPS % Activation: two point normalized, compound 1 as 200%, LPS (10 ng/mL) as 100%
Source text: Site A was assigned the 4-substituent of thiazole ring, site B was the thiazole ring itself, site C was the central amide bond in the structure, site D was the benzene ring bearing 1,4-carboxyl and sulfamoyl group, site E was the sulfonamide functional group and site F was the amide substituent on the sulfamoyl group.

[5] = tested on: THP-1 cells; test: Cell viability assay (MTT); format: cell-based; details: compound 5 μM alone, 18 h, normalized to DMSO as 100%
Method in brief: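 THP-1 cells in RPMI/10% FBS got compound at a final 5 μM (0.05% DMSO) for 18 h. MTT (0.5 mg/mL) was then added for 4 to 6 h, followed by SDS/HCl lysis overnight. Absorbance was read at 570 nm against 650 nm reference.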

[6] = tested on: NF-kB; test: NF-kB phosphorylation and nuclear localization in THP-1 cells (ICC and WB); format: cell-based
[7] = tested on: JNK, P38 and Erk1/2; test: MAPK activation in THP-1 cells; format: cell-based; details: #42 alone
[8] = Reactogenicity (FIG. 21)
[9] = tested on: BMDCs; test: Co-stimulatory marker expression in BMDCs; format: cell-based; details: for Co-stimulatory markers: CD40 and CD86 induce by LPS or MPLA: BMDCs
[10] = tested on: THP-1 cells; test: RNA seq in THP-1 cells; format: cell-based
[11] = tested on: NF-κB; test: Measurement of NF-κB activation using THP1-Blue NF-κB cells (SEAP); format: cell-based; details: for activity at 5 µM: 20 h, two point normalized, compound 1 as 200%; for NF-κB activity (SAR discussion, in words): evaluated in both the presence and absence of LPS
[12] = tested on: THP-1 cells; test: Co-stimulatory marker expression in THP-1 cells; format: cell-based
[13] = compound 5 μM + LPS, LPS (10 ng/mL) as 100%, read-out: NF-κB SEAP Compound + LPS % Activation
[14] = compound 5 μM alone, LPS or DMSO as 100%, read-out: NF-κB SEAP Compound alone % Activation

| Structure (SMILES) | NF-κB FRET Compound + LPS % Activation [4] [%] | MTT Compound alone % Viability [5] [%] | activity at 5 µM [11, 13] [%] | activity at 5 µM [11, 14] [%] | NF-κB activity (SAR discussion, in words) [11] | further results |
| --- | --- | --- | --- | --- | --- | --- |
| Cc1ccc(C)c(-c2csc(NC(=O)c3ccc(S(=O)(=O)N4CCCCC4)cc3)n2)c1 [Compound 1, N-(4-(2,5-dimethylphenyl)thiazol-2-yl)-4-(piperidin-1-ylsulfonyl)benzamide] | 200.00 | 102.81 | 200 | 200 |  | Cytotoxicity [1]: Enhancement of cell viability; Gene expression: CD40, IL-12. CXCL5 expression ([2]; BMDCs): Enhancement of CD40, IL-12.; CD40, CXCL10 and IL-12 gene expression kinetics ([2]; by 10 hours after exposure, BDMCs, LPS and compound 42 (FIG. 7)): upregulated; cytokine production (mIL-12, mIL-6, mTNFalpha) induced by Dectin1 ([3]; listed as 42): not enhanced; also recorded: not by Dectin1; cytokine production (mIL-12, mIL-6, mTNFalpha) induced by Dectin1 ([3]; listed as #42): not by Dectin1; cytokine production induced by TLR ligands ([3]; with a TLR ligand (FIGS. 3-4)): enhanced; enhancement of NF-κB activity by LPS at 12 h (confirmatory kinetic screening) ([4]; in presence of LPS, 12 h incubation): most potent; phosphorylation of NFkB, combination of LPS and compound ([6]; LPS + compound 42): synergistic; NF-kB phosphorylation and nuclear localization induced by LPS (ICC and WB) ([6]; THP-1 cells, with LPS, listed as #42): prolonged; also recorded: Prolongation of NF-kB; phosphorylation of NF-kB by compound alone ([6]; compound 42 alone (FIGS. 9A-9C)): induced and sustained; MAPK activation: phosphorylation of JNK, P38 and Erk1/2 ([7]; listed as 42): induced; MAPK activation: phosphorylation of JNK, P38 and Erk1/2 ([7]; listed as #42): phosphorylation of JNK, P38 and Erk1/2; reactogenicity [8]: not reactogenic; co-stimulatory molecule expression induced by LPS ([9]; BDMCs, LPS (FIGS. 5A-5G)): enhances; co-stimulatory molecule expression induced by MPLA ([9]; BDMCs, MPLA (FIGS. 6A-6F)): enhances; Co-stimulatory markers: CD40 and CD86 induce by LPS or MPLA ([9]; listed as 42): enhanced; Co-stimulatory markers: CD40 and CD86 induce by LPS or MPLA ([9]; listed as #42): enhanced; also recorded: Enhancement of CD40 and CD86; RNA seq [10]: Induction of CSF-1 and LIF; Co-stimulatory markers: CD40 and CD86 induce by LPS [12]: Enhancement of CD40 and CD86 |
| Cc1ccc(C)c(-c2nc(NC(=O)c3ccc(S(=O)(=O)N4CCCCC4)cc3)sc2N2CCCCC2)c1 [Compound 18h, N-(4-(2,5-dimethylphenyl)-5-(piperidin-1-yl)thiazol-2-yl)-4-(piperidin-1-ylsulfonyl)benzamide] | 99.96 | 89.45 | 99.9 | 99.2 | completely inactive |  |
| CCCCCc1sc(NC(=O)c2ccc(S(=O)(=O)N3CCCCC3)cc2)nc1-c1cc(C)ccc1C [Compound 18t, N-(4-(2,5-dimethylphenyl)-5-pentylthiazol-2-yl)-4-(piperidin-1-ylsulfonyl)benzamide] | 213.25 | 110.37 | 132 | 119 | loss in activity |  |
| CCOC1CCN(S(=O)(=O)c2ccc(C(=O)Nc3nc(-c4cc(C)ccc4C)cs3)cc2)CC1 [Compound 58g, N-(4-(2,5-dimethylphenyl)thiazol-2-yl)-4-((4-ethoxypiperidin-1-yl)sulfonyl)benzamide] | 189.46 | 112.63 | 178 | 200 | active |  |
| CCCC#Cc1sc(NC(=O)c2ccc(S(=O)(=O)N3CCCCC3)cc2)nc1-c1cc(C)ccc1Br [Compound 64, N-(4-(2-bromo-5-methylphenyl)-5-(pent-1-yn-1-yl)thiazol-2-yl)-4-(piperidin-1-ylsulfonyl)benzamide] | 196.14 | 101.42 | 287 | 348 | very potent and showed better potency than compound 1 |  |
